Reference: PubChem BioAssay (NCI)
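Five concentrations, 48 hours, 96-well plates. TGI is the concentration that stops growth completely.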

How the values were obtained:
Assay in all cases: NCI-60 cell line screen, 48 h
DLD-1 colon = tested on: DLD-1 colon
DMS 114 small cell lung = tested on: DMS 114 small cell lung
DMS 273 small cell lung = tested on: DMS 273 small cell lung
HOP-18 NSCLC = tested on: HOP-18 NSCLC
LXFL 529 NSCLC = tested on: LXFL 529 NSCLC
M19-MEL melanoma = tested on: M19-MEL melanoma
SNB-78 CNS = tested on: SNB-78 CNS
XF 498 CNS = tested on: XF 498 CNS
RXF-631 renal = tested on: RXF-631 renal

Compound	TGI (DLD-1 colon) [µM]	TGI (DMS 114 small cell lung) [µM]	TGI (DMS 273 small cell lung) [µM]	TGI (HOP-18 NSCLC) [µM]	TGI (LXFL 529 NSCLC) [µM]	TGI (M19-MEL melanoma) [µM]	TGI (SNB-78 CNS) [µM]	TGI (XF 498 CNS) [µM]	TGI (RXF-631 renal) [µM]
CCCc1c[nH]c(-c2ccc(-c3cc(CCC)c(C=O)[nH]3)s2)c1	28.4	27.8	30.3	43	32.8	21.6	37.2	32.7	–
CC(=O)C1=C(C)Cn2c(=O)c3ccccc3c(=O)n2C1	> 100	> 100	> 100	–	> 100	> 100	–	–	> 100
COc1cc(-c2cc(=O)c3c(O)c(OC)c(OC)c(OC)c3o2)ccc1O	> 100	77.8	30.5	> 100	> 100	> 100	70.1	–	–
O=C1CCCC/C1=C1\C(=O)Nc2cc(F)ccc21	> 100	> 100	> 100	> 100	> 100	> 100	> 100	> 100	–
CC(O)C(N=Cc1nc(-c2ccccc2)oc1O)C(=O)O (stereo not given)	> 100	> 100	> 100	> 100	> 100	> 100	> 100	> 100	> 100
Cc1ccc(C[P+]2(c3ccccc3)CCCCC2)cc1	> 100	64.1	> 100	–	85.6	50.5	92.4	0.537	–
Cc1c(-c2nnc(-c3ccc(Cl)cc3)o2)c(=O)n(-c2ccccc2)n1C	> 100	> 100	> 100	> 100	> 100	> 100	> 100	> 100	–
N=c1nc2n(cc1F)[C@@H]1O[C@H](CO)[C@@H](O)[C@@H]1O2	> 100	–	> 100	> 100	> 100	> 100	> 100	> 100	–
CCOC(=O)c1cc2c(nc1N)-c1ncccc1CC2	> 100	33	> 100	> 100	> 100	> 100	> 100	–	> 100
O=C(O)Cc1cccc2c1Oc1ccccc1S2	> 100	> 100	> 100	–	> 100	> 100	> 100	–	–
N#C/C(=C\c1ccc(O)c(O)c1)C(=O)NC1CCC(CC2CCC(NC(=O)/C(C#N)=C/c3ccc(O)c(O)c3)CC2)CC1 (stereo not given)	> 40.4	–	0.832	> 100	28.1	5.23	5.37	16.5	–
CC1(C)OC(C[C@]2(C#N)C[C@H](CCl)OC(C)(C)O2)C[C@@H](C[C@]2(C#N)C[C@H](CCl)OC(C)(C)O2)O1 (stereo not given in full)	> 100	–	> 100	> 100	> 100	> 100	> 100	> 100	–
COc1ccc2c3c(n(Cc4ccccc4)c(=O)c2c1)-c1cc(OC)c(OC)cc1C3C (stereo not given)	> 100	> 89.2	38.6	> 100	> 53	> 73.1	> 100	38	> 100
CCSC1(SCC)CC(Cc2ccc(OC)cc2)N(C=NC(C)(C)C)C1 (stereo not given)	> 100	43.4	> 100	> 100	93.6	97.7	> 100	38.9	–
